In US20250154144A1 (CHILDREN'S HOSPITAL MEDICAL CENTER, priority 2021, published 2025):
pIC50, pKd: −log10 of the molar value. Like-named read-outs stand apart in the source and are kept apart here.

Experiments:
MOLM14(D835Y) cells = assay type: cell-based; settings: MOLM14(D835Y) cells; for Excess HSA Score: 10 × 10
MOLM14 D835Y cells = assay: cells; assay type: cell-based; settings: Homo sapiens, MOLM-14, 48 h, 48 hours, Cell Titer Glo; read-out: MOLM14 D835Y IC50
THP1 cells = assay: Combination drug screening, Cell Titer Glo, 10 × 10 matrix, THP1 cells; assay type: cell-based; settings: THP1 cells; for Excess HSA Score: 10 × 10
FLT3 K663Q = target: T1, FLT3 K663Q (Homo sapiens, UniProt P36888, K663Q); assay: DiscoverX KINOMEscan competition binding, FLT3 K663Q
T1 construct: purchased DiscoverX (KINOMEscan)
T1 sequence (P36888 27-993 K663Q): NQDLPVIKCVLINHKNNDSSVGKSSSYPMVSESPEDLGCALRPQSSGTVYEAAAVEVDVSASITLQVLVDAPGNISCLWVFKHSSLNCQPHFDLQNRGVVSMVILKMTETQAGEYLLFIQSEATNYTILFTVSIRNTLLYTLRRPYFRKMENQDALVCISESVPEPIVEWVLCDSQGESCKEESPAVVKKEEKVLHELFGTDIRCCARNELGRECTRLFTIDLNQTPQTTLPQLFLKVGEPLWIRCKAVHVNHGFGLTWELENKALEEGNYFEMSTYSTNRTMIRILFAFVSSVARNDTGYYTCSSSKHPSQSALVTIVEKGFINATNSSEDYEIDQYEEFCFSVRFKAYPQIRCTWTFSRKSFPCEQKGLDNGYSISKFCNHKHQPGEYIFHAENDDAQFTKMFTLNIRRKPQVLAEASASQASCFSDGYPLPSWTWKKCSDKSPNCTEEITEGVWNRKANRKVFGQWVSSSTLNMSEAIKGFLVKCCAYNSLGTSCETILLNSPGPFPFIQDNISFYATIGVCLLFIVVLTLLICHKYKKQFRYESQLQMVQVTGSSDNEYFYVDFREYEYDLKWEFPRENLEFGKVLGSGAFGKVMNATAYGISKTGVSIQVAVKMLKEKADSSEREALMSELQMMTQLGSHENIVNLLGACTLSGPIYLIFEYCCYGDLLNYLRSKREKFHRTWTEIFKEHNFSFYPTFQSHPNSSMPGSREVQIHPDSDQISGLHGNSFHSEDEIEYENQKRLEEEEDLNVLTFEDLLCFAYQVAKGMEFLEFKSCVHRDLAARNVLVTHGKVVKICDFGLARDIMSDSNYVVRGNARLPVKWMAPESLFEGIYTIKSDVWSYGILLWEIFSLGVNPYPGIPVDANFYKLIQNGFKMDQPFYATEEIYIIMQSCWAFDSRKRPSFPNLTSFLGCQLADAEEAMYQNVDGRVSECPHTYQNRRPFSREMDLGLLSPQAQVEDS

IRAK4 = target: T2, IRAK4 (Homo sapiens, UniProt Q9NWZ3); assay: Reaction Biology NanoBRET target engagement assay in HEK-293 cells, IRAK4; settings: NanoBRET IRAK4 IC50, HEK-293 cells
T2 sequence (Q9NWZ3 1-460): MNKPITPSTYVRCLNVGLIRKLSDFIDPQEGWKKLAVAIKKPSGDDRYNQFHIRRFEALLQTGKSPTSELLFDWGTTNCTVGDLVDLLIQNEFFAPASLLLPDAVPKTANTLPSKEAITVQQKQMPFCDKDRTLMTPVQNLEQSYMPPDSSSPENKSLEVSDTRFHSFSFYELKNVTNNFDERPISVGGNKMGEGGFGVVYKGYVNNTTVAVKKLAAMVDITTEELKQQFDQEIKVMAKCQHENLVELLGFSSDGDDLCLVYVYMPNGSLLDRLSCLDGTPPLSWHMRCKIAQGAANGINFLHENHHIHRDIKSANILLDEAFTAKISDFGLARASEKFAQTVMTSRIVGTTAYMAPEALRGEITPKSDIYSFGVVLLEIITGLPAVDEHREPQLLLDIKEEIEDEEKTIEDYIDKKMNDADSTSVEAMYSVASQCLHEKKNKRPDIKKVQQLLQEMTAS

[1] = combination with (+)-BAY-1251152
[2] = combination with Eprenetapopt/APR-246
[3] = combination with Venetoclax (ABT-199)

CC(O)(c1cn2c(-c3ccnc(N[C@H]4CNCC[C@@H]4F)n3)cnc2cn1)C(F)(F)F (single isomer, unassigned) [Compound 72]
Excess HSA Score (MOLM14(D835Y) cells; [1]): 179
Excess HSA Score (MOLM14(D835Y) cells; combination with AMG-232): −165.4
Excess HSA Score (MOLM14(D835Y) cells; combination with AZD-5363): −687.9
Excess HSA Score (MOLM14(D835Y) cells; [2]): −80.14
Excess HSA Score (MOLM14(D835Y) cells; combination with Ivosidenib): −168.3
Excess HSA Score (MOLM14(D835Y) cells; combination with Lenalidomide): 407.4
Excess HSA Score (MOLM14(D835Y) cells; combination with Palbociclib): −390.1
Excess HSA Score (MOLM14(D835Y) cells; combination with Prednisolone): 717.2
Excess HSA Score (MOLM14(D835Y) cells; combination with SNDX-5613): −77.23
Excess HSA Score (MOLM14(D835Y) cells; combination with TNO-155): −797.6
Excess HSA Score (MOLM14(D835Y) cells; combination with Trametinib): 218.5
Excess HSA Score (MOLM14(D835Y) cells; combination with Ulixertinib): 672.6
Excess HSA Score (MOLM14(D835Y) cells; [3]): −1396
Comments (MOLM14(D835Y) cells; [1]): Antagonistic
Comments (MOLM14(D835Y) cells; [3]): Synergistic
pIC50 (MOLM14 D835Y cells): 7.26
Excess HSA Score (THP1 cells; [1]): −155.7
Excess HSA Score (THP1 cells; combination with AMG-232): 364
Excess HSA Score (THP1 cells; combination with AZD-5363): −371.3
Excess HSA Score (THP1 cells; [2]): 594.2926
Excess HSA Score (THP1 cells; combination with Ivosidenib): 175.5
Excess HSA Score (THP1 cells; combination with Lenalidomide): 175.9
Excess HSA Score (THP1 cells; combination with Palbociclib): −319
Excess HSA Score (THP1 cells; combination with Prednisolone): 201.6
Excess HSA Score (THP1 cells; combination with SNDX-5613): 342.4
Excess HSA Score (THP1 cells; combination with TNO-155): 908.1
Excess HSA Score (THP1 cells; combination with Trametinib): 354.3
Excess HSA Score (THP1 cells; combination with Ulixertinib): 1146
Excess HSA Score (THP1 cells; [3]): −1130
Comments (THP1 cells; combination with Ivosidenib): Antagonistic
Comments (THP1 cells; [3]): Synergistic
pKd (FLT3 K663Q): 7.68
pIC50 (IRAK4): > 9.30
